Consider five compounds from patent US7507753B2, “Biaryl compound and use thereof” (Takeda Chemical Industries Ltd., priority 2001, dated 2009).

Structures are written as SMILES. Structures can show the parent of a compound that is named as a salt.

T1 sequence (P32245 whole entry): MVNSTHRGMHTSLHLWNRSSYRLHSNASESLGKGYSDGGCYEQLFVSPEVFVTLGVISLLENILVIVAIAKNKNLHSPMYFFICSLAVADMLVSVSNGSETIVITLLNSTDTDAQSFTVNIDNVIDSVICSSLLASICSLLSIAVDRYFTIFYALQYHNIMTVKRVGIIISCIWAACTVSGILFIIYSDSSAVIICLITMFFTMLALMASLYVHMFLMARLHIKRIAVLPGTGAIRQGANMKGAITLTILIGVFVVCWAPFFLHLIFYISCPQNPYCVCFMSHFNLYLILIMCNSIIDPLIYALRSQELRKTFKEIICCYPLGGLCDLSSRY

This assay concerns the target T1, Human MC4R (Homo sapiens, UniProt P32245).
T1 construct: expressed in transfected cells; plasmid pMC4R in vector pMSR alpha neo
Briefly: [125I]-[Nle4,D-Phe7]-α-MSH binding inhibition in CHO/MC4R cells. The conditions noted are these: test compound 10 μM, 100 pM [125I]-[Nle4,D-Phe7]-α-MSH, room temperature, 60 minutes. The procedure:
(1) Cloning of Human MC4R
Cloning of MC4R gene was conducted from human brain cDNA by PCR method. Using 0.5 ng of brain cDNA (Clontech, Quick-lone cDNA) as a genetic template, primer sets prepared by referring to MC4R gene base sequence described in Birkenbach M. et al. (J. Virol, 67(4),2209-2220(1993)), i.e., primer-1: 5′-[…]-3′ [Sequence No.:1] and primer-2: 5′-[…]-3′ [Sequence No.:2] were added in amounts of 50 pmol, respectively, and, the PCR reaction was carried out using TaKaRa LA Taq(Takara Shuzo)in Gene Amp PCR System 9600 (Applied Biosystems)(Reaction conditions: 35 cycles of 95° C. for 1 minute, 62° C. for 1 minute, and 72° C. for 3 minutes).
(2) Preparation of Expression Plasmid for Human MC4R
After the PCR fragments obtained above were digested by restriction enzymes Eco RI (Takara Shuzo) and Sal I (Takara Shuzo), DNA fragments were collected by agarose gel electrophoresis. The DNA fragments and an expression plasmid for animal cells pMSR a neo (Japanese Unexamined Patent Application Publication No. 2000-281685, WO 00/44756), which was previously digested by Eco RI and Sal I, were mixed and ligated using a DNA Ligation Kit Ver. 2 (Takara Shuzo). Transformation of E. coli JM109 competent cells gave plasmid pMC4R.
(3) Introduction of the Expression Plasmid for Human MC4R into CHO-K1 Cells and Expression thereof
CHO-KI cells grown in 150 cm^2 of a cell culture flask (Corning Costar) using Ham F12 medium (GIBCO BRL) containing 10% fetal bovine serum (GIBCO BRL) were collected by using 0.5 g/L trypsin-0.2 g/L EDTA (GIBCO BRL). The cells were washed with PBS (GIBCO BRL), centrifuged (1000 rpm, 5 minutes), and were suspended in PBS. Then, the DNA was introduced into the cells using Gene Pulser (BioRad) according to the following conditions. Namely, 1×10^7 cells and 15 μg of human MC4R expression plasmid pMC4R were placed in a 0.4-cm gap cuvette, and the mixture was electropolated under 0.25 kV of electric voltage, and 960 μF of capacitance. Cells were then transferred to Ham F12 medium containing 10% fetal bovine serum. After incubation for 24 hours, cells were collected, centrifuged, and suspended in Ham F12 medium containing 10% fetal bovine serum and Geneticin (GIBCO BRL) at a concentration of 500 μg/ml. Cells were diluted to a concentration of 10^4 cells/ml, and inoculated in 96-well plate (Corning Costar) to obtain Geneticin-resistant strains.
The Geneticin-resistant strains were grown in 96-well plates (OPAQUE PLATE 3917, Costar), and MC4R-expressing cells were selected from the resistant strains. Namely, in an assay buffer (20 mM HEPES (Dojindo Laboratories, Inc.), 0.5% BSA, 0.05% NaN3) containing 200 pM [^125I]-[Nle4,D-Phe7]-α-Melanocyte Stimulating Hormone (Daiichi Pure Chemicals Co., Ltd.), the cells were subjected to binding reaction at room temperature for 60 minutes. After the assay buffer was removed by inspiration, the cells were washed with ice-cooled PBS, and then stirred after adding 100 μl/well of MicroScint-20 (Packard Industry Company, Inc.) to each well. Subsequently, the cells were counted for radioactivity using a Top Count (Packard) to select CHO/MC4R strains, the cells to which [^125I]-[Nle4,D-Phe7]-α-Melanocyte Stimulating Hormone bound specifically. […]
The CHO/MC4R strains were inoculated in 96 well microplate at a concentration of 1×10^4 cells/well, and grown for 72 hours. […] Then, 100 μl MicroScint 20 (Packerd) was added to each well, and the radioactivity of each well was measured by Top Count (Packard). […]
Turning to `CC(c1cccc(-c2ccccc2C(=O)NCCN)c1)N(C(=O)Cc1ccc2ccccc2c1)C1CCN(Cc2ccccc2)CC1` (centres unmarked) [Example 1, N-(2-aminoethyl)-3′-[1-{N-(1-benzylpiperidin-4-yl)-N-(2-naphthylacetyl)amino}ethyl][1,1′-biphenyl)-2-carboxamide dihydrochloride], the “Binding Inhibitory Ratio” value turned out to be 96%. As to `CC(c1cccc(-c2ccccc2C(=O)NCCN)c1)N(C(=O)Cc1cccc(Cl)c1)C1CCN(Cc2ccccc2)CC1` (centres unmarked) [Example 4, N-(2-aminoethyl)-3′-[1-(N-(1-benzylpiperidin-4-yl)-N-(3-chlorophenylacetyl)amino}ethyl][1,1′-biphenyl]-2-carboxamide dihydrochloride], the “Binding Inhibitory Ratio” value came out at 92%. For `CC(c1cccc(-c2ccccc2C(=O)NCCN)c1)N(C(=O)Cc1ccc(Cl)c(Cl)c1)C1CCN(Cc2ccccc2)CC1` (centres unmarked) [Example 9, N-(2-aminoethyl)-3′-[1-{N-(1-benzylpiperidin-4-yl)-N-(3,4-dichlorophenylacetyl)amino}ethyl][1,1′-biphenyl]-2-carboxamide dihydrochloride], the “Binding Inhibitory Ratio” value came out at 100%. As to `CC(c1cccc(-c2ccccc2C(=O)NCCN)c1)N(C(=O)Cc1ccc(Br)cc1)C1CCN(Cc2ccccc2)CC1` (centres unmarked) [Example 2, N-(2-aminoethyl) -3′-[1-{N-(1-benzylpiperidin-4-yl)-N-(4-bromophenylacetyl)amino}ethyl][1,1′-biphenyl]-2-carboxamide dihydrochloride], the “Binding Inhibitory Ratio” value is recorded as 97%. In the case of `CC(c1cccc(-c2ccccc2C(=O)NCCN)c1)N(C(=O)Cc1ccc(Cl)cc1)C1CCN(Cc2ccccc2)CC1` (centres unmarked) [Example 3, N-(2-aminoethyl)-3′-[1-{N-(1-benzylpiperidin-4-yl)-N-(4-chlorophenylacetyl)amino}ethyl][1,1′-biphenyl]-2-carboxamide dihydrochloride], the “Binding Inhibitory Ratio” value came out at 97%.
